Experimental data published in patent publication US10669310B2, “Peptide for cancer treatment and pharmaceutical composition containing same” (TOKUSHIMA UNIVERSITY, priority 2016, dated 2020).
Where a SMILES comes first, the peptide text is derived from it.

Key:
MCF-7 cells = format: cell-based, human; conditions: for IC50: 96 h; for duration of significant cell growth inhibitory effects: 1 μM, E2-dependent growth of MCF-7
Method: (§1) Human breast cancer cell line MCF-7 and mammary epithelial cell line MCF-10A were purchased from American Type Culture Collection (ATCC, Manassas, Va., USA). Breast cancer cell line KPL-3C (J. Kurebayashi, et al., Br. J. Cancer 74, 200-207 (1996)) was kindly provided by Dr. Junichi Kurebayashi (Kawasaki Medical School). All cell lines were monolayer cultured in an appropriate medium supplemented with 10% FBS. The cells were maintained at 37° C. under humidified atmosphere containing 5% CO2.
(§2) In each experiment, the respective cells were seeded in a 48-well plate (2×10^4 cells/mL), a 6-well plate (3×10^5 cells/mL), or a 10-cm dish (2×10^6 cells/10 mL). MCF-7 cells were seeded in MEM (Thermo Fisher Scientific) supplemented with 10% FBS (Nichirei Biosciences Inc., Tokyo, Japan), 1% Antibiotic/Antimycotic solution (Thermo Fisher Scientific, Waltham, Mass., USA), 0.1 mM NEAA (Thermo Fisher Scientific), 1 mM sodium pyruvate (Thermo Fisher Scientific), and 10 μg/mL insulin (Sigma, St. Louis, Mo., USA). KPL-3C cells were seeded in RPMI (Thermo Fisher Scientific) supplemented with 10% FBS and 1% Antibiotic/Antimycotic solution. MCF-10A cells were seeded in MEBM (Lonza) supplemented with a Single Quots kit (BPE, hydrocortisone, hEGF, insulin, gentamycin/amphoterin-B) (Lonza, Walkersville, Md., USA) and 100 ng/mL cholera toxin. For 17β-estradiol (E2) (Sigma) stimulation, the media for MCF-7 and KPL-3C were changed to phenol red-free DMEM/F12 (Thermo Fisher Scientific) supplemented with 10% FBS, 1% Antibiotic/Antimycotic solution, 0.1 mM NEAA, 1 mM sodium pyruvate, and 10 μg/mL insulin on the day after seeding. Twenty-four hours later, the cells were treated with 10 nM E2 and a peptide (for example, 11R-ERAP or a stapled ERAP), or with 10 nM E2 alone.
When carrying out treatment with tamoxifen (Sigma) or fulvestrant (LKT laboratories, St. Paul, Minn., USA), cells were treated with 10 nM tamoxifen or 2 μM fulvestrant simultaneously with the above-mentioned treatment with E2 and a peptide or with E2 alone.
Cell growth assays on MCF-7, KPL-3C, and MCF-10A were carried out as described previously using a Cell Counting Kit-8 (CCK-8) (Dojindo, Kumamoto, Japan) (T. Yoshimaru, et al., Nat. Commun. 4, 2443 (2013)). The data are shown by mean±SE of three independent experiments.

[1] = format: in vivo; conditions: i.p. every day or every four days, 28 days
Method: (§3) KPL-3C cell suspensions (1×10^7 cells/mouse) were mixed with an equal volume of Matrigel (BD) and injected (200 μL in total) into the mammary fat pads of 6-week-old female BALB/c nude mice (Charles River Laboratories, Tokyo, Japan). The mice were housed in a pathogen-free isolation facility with a twelve-hour light/dark cycle and were fed solid rodent chow and water ad libitum. The tumors developed over several days and reached sizes of approximately 100 mm^3 [calculated as ½×(width×length^2)]. The mice were randomized into the following eleven treatment groups (five heads per group):
(§4) E2 was administered via application of a solution to the neck skin, and regarding the other treatments, administration was performed via intraperitoneal injection unless other administration methods are stated. The tumor volume was measured with calipers for 28 days, and then the mice were subjected to scheduled sacrifice to remove tumors. All the experiments were performed in accordance with the guidelines of the animal facility at Tokushima University.

[2] = system: KPL-3C orthotopic breast cancer xenografts; test: In vivo tumor growth inhibition, KPL-3C orthotopic xenograft, intraperitoneal; design: species or system BALB/c nude mice; conditions: 1 mg/kg or 0.1 mg/kg i.p. every four or seven days, up to 28 days
Method: as §3, §4

BIG3-PHB2 interaction = target: T1, BIG3-PHB2 interaction (Homo sapiens, UniProt Q99623); test: Co-immunoprecipitation with anti-BIG3 antibody in MCF-7 cells; format: cell-based; conditions: MCF-7, 1 μM, 24 hours after treatment
T1 construct: complex formation between the endogenous BIG3 and PHB2 in ERα-positive breast cancer cell line MCF-7; endogenous in cells; host or cells: MCF-7
T1 sequence (Q99623 2-299 limits assumed): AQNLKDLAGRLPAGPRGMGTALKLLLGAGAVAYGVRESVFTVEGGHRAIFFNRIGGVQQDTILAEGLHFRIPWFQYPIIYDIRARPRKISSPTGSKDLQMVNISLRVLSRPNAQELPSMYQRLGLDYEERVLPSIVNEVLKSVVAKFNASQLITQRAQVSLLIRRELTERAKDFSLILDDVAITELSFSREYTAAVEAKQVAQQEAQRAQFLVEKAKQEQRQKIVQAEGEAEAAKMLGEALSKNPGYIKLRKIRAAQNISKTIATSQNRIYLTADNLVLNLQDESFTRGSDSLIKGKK
Method: Immunoblot analyses were performed as described previously (T. Yoshimaru, et al., Nat. Commun. 4, 2443 (2013)). After performing SDS-PAGE, the membranes blotted with proteins were blocked with 4% BlockAce solution (Dainippon Pharmaceutical, Osaka, Japan) for three hours and then incubated with antibodies against the following proteins: BIG3 (1:1,000) (T. Yoshimaru, et al., Nat. Commun. 4, 2443 (2013)); PHB2 (1:1,000) (Abeam, Cambridge, UK); Akt, phosphorylated Akt (S473) (587F11, 1:1,000); p44/42 MAPK, phosphorylated p44/42 MAPK (T202/Y204) (1:1,000); α/β-tubulin (1:1,000) (Cell Signaling Technology, Danvers, Mass., USA); and LMNB1 (1:100) (Sigma). After incubation with an HRP-labeled secondary antibody (anti-mouse IgG-HRP, 1:5,000; anti-rat IgG-HRP; 1:5,000; or anti-rabbit IgG-HRP, 1:1,000) (Santa Cruz Biotechnology, Dallas, Tex., USA) for one hour, the blots were developed with an Enhanced Chemiluminescence (ECL) system (GE Healthcare, Buckinghamshire, UK) and scanned using an Image Reader LAS-3000 mini (Fujifilm, Tokyo, Japan). All the experiments were performed at least in triplicate.
Immunoprecipitation analysis was performed as described previously (T. Yoshimaru, et al., Nat. Commun. 4, 2443 (2013)). Cell lysates were pre-cleared with normal IgG and rec-Protein G Sepharose 4B (Thermo Fisher Scientific) at 4° C. for three hours. Then, the supernatants were incubated with 5 μg of an antibody against BIG3 or an antibody against PHB2 at 4° C. for twelve hours. Next, the antigen-antibody complexes were precipitated using rec-Protein G Sepharose 4B at 4° C. for one hour. The immunoprecipitated protein complexes were washed several times with a lysis buffer. Then, SDS-PAGE and immunoblot analyses were carried out as described above.

[3] = system: ERα target genes TFF1 and CCND1; test: ERα target gene expression in removed tumors; format: in vivo, BALB/c nude mice; conditions: 0.02, 0.1 or 1 mg/kg i.p. every four days or every seven days
Method: The expression of the ERα target genes (TFF1 and CCND1) was evaluated by real-time RT-PCR as described previously (T. Yoshimaru, et al., Nat. Commun. 4, 2443 (2013)). Each sample was normalized to the β2-MG mRNA content, and the results were expressed as multiples (-fold) of the expression level in untreated cells, with that level being defined as 1.0. The data represent the mean±SD of three independent experiments. The primers used for RT-PCR were as follows: […]

MCF-10A cells = test: Cell growth (MTT) assay, MCF-10A cells; format: cell-based, human; conditions: normal mammary epithelial cells, ERα-negative and BIG3-negative
Method: as §1
as §2, with “For 17β-estradiol (E2) (Sigma) stimulation, the media for MCF-7 and KPL-3C were changed to phenol red-free DMEM/F12 (Thermo Fisher Scientific) supplemented with 10% FBS, 1% Antibiotic/Antimycotic solution, 0.1 mM NEAA, 1 mM sodium pyruvate, and 10 μg/mL insulin on the day after seeding. Twenty-four hours later, the cells were treated with 10 nM E2 and a peptide (for example, 11R-ERAP or a stapled ERAP), or with 10 nM E2 alone.” left out

[4] = In vitro blood-brain barrier permeability test; format: in vitro ADME
Method: BIG3 is expressed in the brain though expression is weak (Kim, J. W. et al., Cancer Sci. 100, 1468-1478 (2009)). Then, since there were concerns of side effects due to the transfer of stapled ERAP to the brain, blood-brain-barrier permeability test was carried out on stapled ERAP. Blood-brain-barrier permeability of stapled ERAP (No. 12) was examined by placing stapled ERAP (No. 12) to the inner side (vascular cavity side) of the insert of a blood-brain barrier permeability kit, and measuring the concentration of stapled ERAP (No. 12) that passed through a filter specialized for intracerebral transferability assay and leaked into the well (cerebral parenchyma side) of the plate in 30 minutes. The permeability coefficient (Papp) at this time was calculated (2 or less: very low permeability; 2 to 10: low permeability; 10 to 20: high permeability; and 20 or higher: very high permeability).

| SMILES | inhibition rate of E2-dependent growth (MCF-7 cells) [%] | IC50 (MCF-7 cells) [nM] | toxicity, body weight [1] | E2-dependent tumor growth [2] | duration of significant cell growth inhibitory effects (MCF-7 cells) | inhibition of endogenous BIG3-PHB2 complex formation (BIG3-PHB2 interaction) | E2-dependent expression of TFF1 and CCND1 in tumors [3] | effect on MCF-10A cell growth (MCF-10A cells) | Papp at 30 min, 30 μM ([4]; 30 μM) [×10⁻⁶ cm/s] | Papp at 30 min ([4]; 30 minutes, 2 or less: very low permeability, read-out: blood-brain barrier permeability coefficient (Papp)) [×10⁻⁶ cm/s] | recovery at 30 minutes, 10 μM ([4]; not told, 10 μM, read-out: Recovery Rate) [%] | recovery at 30 minutes, 30 μM ([4]; not told, 30 μM, read-out: Recovery Rate) [%] |
| --- | --- | --- | --- | --- | --- | --- | --- | --- | --- | --- | --- | --- |
| CSCC[C@H](NC(=O)[C@H](CCC(N)=O)NC(=O)CNC(=O)CNC(=O)CNC(=O)[C@H](CCCNC(=N)N)NC(=O)[C@H](CCCNC(=N)N)NC(=O)[C@H](CCCNC(=N)N)NC(=O)[C@H](CCCNC(=N)N)NC(=O)[C@H](CCCNC(=N)N)NC(=O)[C@H](CCCNC(=N)N)NC(=O)[C@H](CCCNC(=N)N)NC(=O)[C@H](CCCNC(=N)N)NC(=O)[C@H](CCCNC(=N)N)NC(=O)[C@H](CCCNC(=N)N)NC(=O)[C@@H](N)CCCNC(=N)N)C(=O)N[C@@H](CC(C)C)C(=O)N[C@@H](CO)C(=O)N[C@@H](CC(=O)O)C(=O)N[C@@H](CC(C)C)C(=O)N[C@H](C(=O)N[C@@H](CC(C)C)C(=O)N[C@@H](CCC(N)=O)C(=O)N[C@@H](CC(C)C)C(=O)N[C@@H](CCCNC(=N)N)C(=O)N[C@@H](CCC(N)=O)C(=O)N[C@@H](CCCNC(=N)N)C(=O)O)[C@@H](C)O [11R-ERAP, 11R-GGG-QMLSDLTLQLRQR, reference compound] (H-RRRRRRRRRRRGGGQMLSDLTLQLRQR-OH; N-terminus and C-terminus assumed) | 45 | 7970 | No toxicity or significant body weight decrease |  |  |  |  |  |  |  |  |  |
| CSCC[C@@H](NC(=O)[C@H]1CCC(=O)NCCCCNC(=O)CC[C@@H](NC(=O)[C@@H](CC(C)C)NC(=O)[C@@H](CCC(N)=O)NC(=O)[C@@H](CC(C)C)NC(=O)[C@@H](CCCNC(=N)N)NC(=O)[C@@H](CCC(N)=O)NC(=O)[C@@H](CCCNC(=N)N)NC(C)=O)C(=O)N[C@H](CC(C)C)C(=O)N[C@H](CC(=O)O)C(=O)N[C@H](CO)C(=O)N1)C(=O)N[C@H](CCC(N)=O)C(N)=O [RI stapled ERAP No. 12] |  | 500 |  | almost fully inhibited | seven | inhibited endogenous BIG3-PHB2 complex formation | significantly suppressed | not inhibited |  |  |  |  |
| CSCC[C@H](NC(=O)[C@H](CCC(N)=O)NC(C)=O)C(=O)N[C@H]1CCC(=O)NCCCCNC(=O)CC[C@@H](C(=O)N[C@@H](CC(C)C)C(=O)N[C@@H](CCC(N)=O)C(=O)N[C@@H](CC(C)C)C(=O)N[C@@H](CCCNC(=N)N)C(=O)N[C@@H](CCC(N)=O)C(=O)N[C@@H](CCCNC(=N)N)C(N)=O)NC(=O)[C@H](CC(C)C)NC(=O)[C@H](CC(=O)O)NC(=O)[C@H](CO)NC1=O [stapled ERAP No. 12] |  | 590 | No toxicity or significant body weight decrease |  |  |  |  |  | 0.177 | ≤ 2 | 0 | 0.01 |
| CSCC[C@@H](NC(=O)[C@@H](CCC(N)=O)NC(C)=O)C(=O)N[C@@H]1CCC(=O)NCCCCNC(=O)CC[C@H](C(=O)N[C@H](CC(C)C)C(=O)N[C@H](CCC(N)=O)C(=O)N[C@H](CC(C)C)C(=O)N[C@H](CCCNC(=N)N)C(=O)N[C@H](CCC(N)=O)C(=O)N[C@H](CCCNC(=N)N)C(N)=O)NC(=O)[C@@H](CC(C)C)NC(=O)[C@@H](CC(=O)O)NC(=O)[C@@H](CO)NC1=O [stapled-D-ERAP No. 12] |  | 440 |  |  | seven | inhibited endogenous BIG3-PHB2 complex formation |  | not inhibited |  |  |  |  |
